These are literature values, as cited in patent publication EP2033945A1, “Quaternary ammonium salts” (Infineum International Limited, priority 2007, dated 2009).

The conditions of this data set: first dissociation constant where the acid is polybasic; from CRC Handbook of Chemistry and Physics, 68th edition, page D161.

Usually pKa stands for the negative logarithm of the acid dissociation constant. For `O=C(O)c1c(O)cc(O)cc1O` [2,4,6-trihydroxybenzoic acid], the pKa was 1.7.
Take `O=C(O)c1ccccc1C(=O)O` [phthalic acid]: the pKa is listed as 2.9.
